The values below come from patent US7951928B2, “Gene encoding a protein and preventive/remedy for neurodegenerative diseases such as polyglutamine diseases by utilizing the same” (Tokyo Medical and Dental University, priority 2004, dated 2011).

For assay [1], the system named is primary cultured cerebellar neurons. The experiment in a line: Measurement of uptake of BrU (transcription) in AMA-treated cerebellar neurons. The format is cell-based, rat. The following applies: three different concentrations of AMA. Here is the method:
(§1) First, solutions containing three different concentrations of AMA were added to culture media of Hela cells, primary cultured cortical neurons of rat embryo (E15), and primary cultured cerebellar neurons of rat. […] The AMA-induced cellular death was significant particularly in the primary cultured neurons and their half-life period was five days or more—the primary cultured neurons died obviously earlier than those that had not been treated with AMA. […] In this AMA-induced cellular death, neuronal cell death progressed very slowly as compared with low-potassium-induced apoptosis of cerebellar neurons.
A cerebral cortical tissue segregated from E17 Wistar rat embryo and a cerebellar tissue segregated from P7 Wistar rat novelborn were shredded with a razor, and treated with a phosphate buffered saline (hereinafter referred to as “PBS”; pH 7.5) containing 0.25% trypsin (Gibco) at 37° C. for 20 min, with gentle shaking every 5 min. Subsequently, the reaction was quenched by replacing the PBS with DMEM containing a 50% fetal bovine serum (hereinafter referred to as “FBS”), and DNaseI (Boehringer Mannheim) was added to a final concentration of 100 μg/ml. The tissues were segregated gently by pipetting with a blue tip. […]

For the next assay, the system named is YAP. The experiment in a line: Northern blotting of YAP expression after AMA. Type of assay: cell-based, rat. The following applies: transcription stage. Here is the method: Next, in order to clarify the molecular mechanism underlying the OP (omega process), we performed microarray analysis. Expression of genes associated with AMA-induced cellular death of cortical neurons and cerebellar neurons and expression of genes associated with low-potassium-induced apoptosis of cerebellar neuron were compared. Experiment was performed twice for each type of cellular death. This microarray analysis led to the identification of 8 genes that offered different expression levels both in apoptosis and OP, and 11 genes that offered different expression levels specifically in OP. The latter set of genes contained YAP, a transcriptional activation factor (coactivator) which is known to play a key role in p73-mediated apoptosis.
Ten micrograms of total RNA extracted from the primary cultured neurons was electrophoresed on a MOPS/formaldehyde gel. The separated RNA fragments were transferred and immobilized to Hybond-N (Pharmacia) by UV cross-linking (exposure dose=120,000 μJ/cm^2). The full-length cDNA with the 61nt insert was cleaved from pBSins61 and purified by passing it through a gel and labeled with [a32P]dCTP (Amersham) using Random Primer DNA-labeling kit (Takara). The probes labeled with 32P were reacted with a nylon film at 60° C. and allowed to stand overnight for permeation. […]

For another assay, the system named is primary cultured neurons. Put plainly: AMA-induced cellular death of primary cultured neurons (Trypan Blue cellular death assay). The format is cell-based, rat. Here is the method:
as §1
A cerebral cortical tissue segregated from E17 Wistar rat embryo and a cerebellar tissue segregated from P7 Wistar rat novelborn were shredded with a razor, and treated with a phosphate buffered saline (hereinafter referred to as “PBS”; pH 7.5) containing 0.25% trypsin (Gibco) at 37° C. for 20 min, with gentle shaking every 5 min. Subsequently, the reaction was quenched by replacing the PBS with DMEM containing a 50% fetal bovine serum (hereinafter referred to as “FBS”), and DNaseI (Boehringer Mannheim) was added to a final concentration of 100 μg/ml. The tissues were segregated gently by pipetting with a blue tip. The cells were filtrated through a nylon mesh (FALCON, pore size: […]) by centrifuge for precipatation and resuspended in DMEM additionally containing 20 mM glucose, 16 mM sodium hydrogen carbonate, 4 mM glutamine, 25 μg/ml gentamicin and 10% FBS. The suspension was added into a polylysine-coated 24-well plate (Corning) and the cells were cultured so that each well has 3×10^5 cells. After 12 hours, cytosine arabinoside was added to the culture wells to a final concentration of […] in order to prevent glial cell proliferation. […]
The cells were treated for 5 min with 0.4% Trypan Blue solution (Invitrogen). […] In these spots the numbers of blue-stained cells (dead cells) and non-stained cells (living cells) were counted to a total of at least 2,000.

In a further assay the test system is Hela cells. The experiment in a line: AMA-induced cellular death of Hela cells. Type of assay: cell-based. Particulars: AMA-treated Hela cells. Here is the method: as §1
The cells were treated for 5 min with 0.4% Trypan Blue solution (Invitrogen). In each experiment, 10-20 spots were randomly selected from each of the three dishes at 100× magnification. In these spots the numbers of blue-stained cells (dead cells) and non-stained cells (living cells) were counted to a total of at least 2,000.

The subject of assay [2] is cell line and primary neurons. The experiment in a line: Genome DNA analysis for DNA ladders after AMA treatment. The following applies: genome DNA analysis of the cell line and primary neurons after AMA treatment. Type of assay: cell-based.
For assay [3], the system named is primary cultured cortical neurons. The experiment in a line: Measurement of uptake of BrU (transcription) in AMA-treated cortical neurons. Type of assay: cell-based, rat. The following applies: three different concentrations of AMA.

Consider `CC[C@H](C)[C@@H]1NC(=O)CNC(=O)[C@@H]2Cc3c([nH]c4cc(O)ccc34)[S+]([O-])C[C@@H](NC(=O)CNC1=O)C(=O)N[C@@H](CC(N)=O)C(=O)N1C[C@H](O)C[C@H]1C(=O)N[C@@H]([C@@H](C)[C@@H](O)CO)C(=O)N2` (stereo in doubt) [AMA, α-amanitin], for which the “transcription (uptake of BrU)” value in assay [1] and in assay [3] was “suppressed transcription” in each case. For the same molecule, in the assay with YAP, the YAP expression result was “down-regulated YAP expression”. In the assay on primary cultured neurons (AMA 10 μg/ml to 250 μg/ml), the “concentration dependence of cellular death rate” value is given as “dependent on AMA concentration”. Moreover, the “cellular death (proportion of living cells)” value in the assay on primary cultured neurons (AMA-treated neurons) and with Hela cells was “induces progressive cellular death” each time. Moreover, the “time before half the population of the neural cells died (half-life period)” value in the assay on primary cultured neurons (neuronal cells treated with α-amanitin) was at least 120 h. Further, the DNA ladders result in assay [2] is reported as “no DNA ladders were observed”.
